Assay results: the supplement of paper PMC4862054

Tests used:
CAL-51 [1] = assay: normalised viability (% of control), CellTiter-Blue; higher = more viable cells (about 100 = DMSO control); conditions: incubation time: 72 h
Protocol: (§1)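 DSRT, CellTiter-Blue viability, 72 h incubation. Signal is normalised to DMSO and benzethonium chloride controls. Value is the normalised response at dose 7.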

CAL-85-1 = assay: as above; conditions: incubation time: 72 h
Protocol: as §1

HDQ-P1 [2] = assay: as above; conditions: incubation time: 72 h
Protocol: as §1

CAL-148 [3] = assay: as above; conditions: incubation time: 72 h
Protocol: as §1

DU-4475 [4] = assay: as above; conditions: incubation time: 72 h
Protocol: as §1

MDA-MB-453 [5] = assay: as above; conditions: incubation time: 72 h
Protocol: as §1

CAL-51 [6] = assay: drug sensitivity score (DSS), CellTiter-Blue viability (DSS (AUC-based score)); higher = stronger viability inhibition; extreme values may be limits of the assay; conditions: incubation time: 72 h
Protocol: (§2)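 DSRT with the CellTiter-Blue (resazurin reduction) viability readout, fluorescence 560/590 nm, 72 h incubation. Plates were normalised to DMSO and benzethonium chloride controls. DSS is computed from the area under the fitted dose-response curve (5 or 9 concentrations).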

BT-474 = assay: as above; conditions: incubation time: 72 h
Protocol: as §2

MDA-MB-231 = assay: as above; conditions: incubation time: 72 h
Protocol: as §2

HDQ-P1 [7] = assay: as above; conditions: incubation time: 72 h
Protocol: as §2

CAL-148 [8] = assay: as above; conditions: incubation time: 72 h
Protocol: as §2

DU-4475 [9] = assay: as above; conditions: incubation time: 72 h
Protocol: as §2

MDA-MB-468 = assay: as above; conditions: incubation time: 72 h
Protocol: as §2

CAL-120 = assay: as above; conditions: incubation time: 72 h
Protocol: as §2

MDA-MB-436 = assay: as above; conditions: incubation time: 72 h
Protocol: as §2

SK-BR-3 = assay: as above; conditions: incubation time: 72 h
Protocol: as §2

BT-549 = assay: as above; conditions: incubation time: 72 h
Protocol: as §2

MDA-MB-453 [10] = assay: as above; conditions: incubation time: 72 h
Protocol: as §2

HCC1937 [11] = assay: as above; conditions: incubation time: 72 h
Protocol: as §2

HCC1143 = assay: as above; conditions: incubation time: 72 h
Protocol: as §2

MFM-223 = assay: as above; conditions: incubation time: 72 h
Protocol: as §2

HCC1937 [12] = conditions: 72 h
Summary of the method: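 Breast cancer cell lines in 20 µl suspension were seeded onto 384-well plates pre-loaded with compound dissolved in 5 µl medium, then incubated 72 h. For viability, 2.5 µl CellTiter-Blue was added for 2 h at 37 °C and fluorescence read at 560/590 nm. Each plate was normalised to vehicle and a positive kill control and checked by Z'-factor. EC50 comes from the fitted percent-inhibition dose-response curve, censored at the highest concentration; rows with zero drug sensitivity score were dropped.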

| Compound | normalised viability (CAL-51 [1]) [%] | normalised viability (CAL-85-1) [%] | normalised viability (HDQ-P1 [2]) [%] | normalised viability (CAL-148 [3]) [%] | normalised viability (DU-4475 [4]) [%] | normalised viability (MDA-MB-453 [5]) [%] | drug sensitivity score (CAL-51 [6]) | drug sensitivity score (BT-474) | drug sensitivity score (MDA-MB-231) | drug sensitivity score (HDQ-P1 [7]) | drug sensitivity score (CAL-148 [8]) | drug sensitivity score (DU-4475 [9]) | drug sensitivity score (MDA-MB-468) | drug sensitivity score (CAL-120) | drug sensitivity score (MDA-MB-436) | drug sensitivity score (SK-BR-3) | drug sensitivity score (BT-549) | drug sensitivity score (MDA-MB-453 [10]) | drug sensitivity score (HCC1937 [11]) | drug sensitivity score (HCC1143) | drug sensitivity score (MFM-223) | EC50, CellTiter-Blue viability (HCC1937 [12]) [µM] |
| --- | --- | --- | --- | --- | --- | --- | --- | --- | --- | --- | --- | --- | --- | --- | --- | --- | --- | --- | --- | --- | --- | --- |
| CN1CCC(COc2cnc(-c3cccc(Cn4nc(-c5cccc(C#N)c5)ccc4=O)c3)nc2)CC1 (1000 nM) | 99.2 | 98.6 | 95 | 90.4 | 97.2 | 90.8 | – | – | – | – | – | – | – | – | – | – | – | – | – | – | – | – |
| CN(C)C/C=C/C(=O)Nc1cc2c(Nc3ccc(F)c(Cl)c3)ncnc2cc1O[C@H]1CCOC1 [Afatinib] (1000 nM) | 99.7 | 48.6 | 49.8 | 73.7 | 87.7 | 27.5 | – | – | – | – | – | – | – | – | – | – | – | – | – | – | – | – |
| CN1CC[C@H](c2c(O)cc(O)c3c(=O)cc(-c4ccccc4Cl)oc23)[C@H](O)C1 [Alvocidib] (1000 nM) | 4.57 | 1.95 | 10.8 | 10.3 | 3.18 | 9.17 | – | – | – | – | – | – | – | – | – | – | – | – | – | – | – | – |
| Nc1nc(Cl)nc2c1ncn2[C@H]1C[C@H](O)[C@@H](CO)O1 [Cladribine] (100 nM) | 111 | 84.2 | 95.5 | 96.9 | 81 | 98.4 | – | – | – | – | – | – | – | – | – | – | – | – | – | – | – | – |
| Nc1ccn([C@@H]2O[C@H](CO)[C@@H](O)[C@@H]2O)c(=O)n1 [Cytarabine] (1000 nM) | 29.8 | 88.5 | 82.2 | 44.6 | 39.7 | 62.4 | – | – | – | – | – | – | – | – | – | – | – | – | – | – | – | – |
| Cc1c2oc3c(C)ccc(C(=O)N[C@@H]4C(=O)N[C@H](C(C)C)C(=O)N5CCC[C@H]5C(=O)N(C)CC(=O)N(C)[C@@H](C(C)C)C(=O)O[C@@H]4C)c3nc-2c(C(=O)N[C@@H]2C(=O)N[C@H](C(C)C)C(=O)N3CCC[C@H]3C(=O)N(C)CC(=O)N(C)[C@@H](C(C)C)C(=O)O[C@@H]2C)c(N)c1=O [Dactinomycin] (100 nM) | 2.49 | 3.46 | 12.9 | 7.49 | 0.64 | 4.93 | – | – | – | – | – | – | – | – | – | – | – | – | – | – | – | – |
| COc1cccc2c1C(=O)c1c(O)c3c(c(O)c1C2=O)C[C@@](O)(C(=O)CO)C[C@@H]3O[C@H]1C[C@H](N)[C@H](O)[C@H](C)O1 [Doxorubicin] (100 nM) | 66.1 | 77.5 | 70.9 | 39.1 | 59.1 | 98.8 | – | – | – | – | – | – | – | – | – | – | – | – | – | – | – | – |
| Cc1ccc(F)c(NC(=O)Nc2ccc(-c3cccc4[nH]nc(N)c34)cc2)c1 [Linifanib] | – | – | – | – | – | – | 0 | 0 | 0 | 0 | 0 | 0 | 0 | 0 | 0 | 0 | 0 | 0 | 0 | 0 | 0 | – |
| Cc1ccc(F)c(NC(=O)Nc2ccc(-c3cccc4[nH]nc(N)c34)cc2)c1 [Linifanib] (100 nM) | 108 | 87.4 | 113 | 103 | 103 | 100 | – | – | – | – | – | – | – | – | – | – | – | – | – | – | – | – |
| S=c1[nH]cnc2nc[nH]c12 [Mercaptopurine] (1000 nM) | 101 | 78.4 | 90.3 | 100 | 90.6 | 110 | – | – | – | – | – | – | – | – | – | – | – | – | – | – | – | – |
| Clc1ccc(C(c2ccccc2Cl)C(Cl)Cl)cc1 (stereo not given) [Mitotane] | – | – | – | – | – | – | 0 | 0 | 0 | 0 | 0 | 0 | 0 | 0 | 0 | 0 | 0 | 0 | 0 | 0 | 0 | – |
| Clc1ccc(C(c2ccccc2Cl)C(Cl)Cl)cc1 (stereo not given) [Mitotane] (1000 nM) | 105 | 83.2 | 104 | 108 | 87.9 | 97.5 | – | – | – | – | – | – | – | – | – | – | – | – | – | – | – | – |
| COc1cccc2cc(-c3nc([C@H]4CC[C@H](C(=O)O)CC4)n4ncnc(N)c34)[nH]c12 [OSI-027] (1000 nM) | 61.8 | 61 | 39.3 | 65.1 | 68.1 | 37.5 | – | – | – | – | – | – | – | – | – | – | – | – | – | – | – | – |
| OC[C@H]1O[C@@H](n2cnc3c2N=CNC[C@H]3O)C[C@@H]1O [Pentostatin] | – | – | – | – | – | – | 0 | 0 | 0 | 0 | 0 | 0 | 0 | 0 | 0 | 0 | 0 | 0 | 0 | 0 | 0 | – |
| OC[C@H]1O[C@@H](n2cnc3c2N=CNC[C@H]3O)C[C@@H]1O [Pentostatin] (1000 nM) | 89.9 | 108 | 85.4 | 123 | 102 | 98.2 | – | – | – | – | – | – | – | – | – | – | – | – | – | – | – | – |
| N#CC[C@H](C1CCCC1)n1cc(-c2ncnc3[nH]ccc23)cn1 [Ruxolitinib] | – | – | – | – | – | – | 0 | 0 | 0 | 0 | 0 | 0 | 0 | 0 | 0 | 0 | 0 | 0 | 1.92 | 0 | 0 | 1.65 |
| N#CC[C@H](C1CCCC1)n1cc(-c2ncnc3[nH]ccc23)cn1 [Ruxolitinib] (1000 nM) | 90 | 110 | 91.1 | 101 | 112 | 92.4 | – | – | – | – | – | – | – | – | – | – | – | – | – | – | – | – |
| C=CC[C@@H]1/C=C(\C)C[C@H](C)C[C@H](OC)[C@H]2O[C@@](O)(C(=O)C(=O)N3CCCC[C@H]3C(=O)O[C@H](/C(C)=C/[C@@H]3CC[C@@H](O)[C@H](OC)C3)[C@H](C)[C@@H](O)CC1=O)[C@H](C)C[C@@H]2OC [Tacrolimus] | – | – | – | – | – | – | 0 | 0 | 0 | 0 | 0 | 0 | 0 | 0 | 0 | 0 | 0 | 0 | 0 | 0 | 0 | – |
| C=CC[C@@H]1/C=C(\C)C[C@H](C)C[C@H](OC)[C@H]2O[C@@](O)(C(=O)C(=O)N3CCCC[C@H]3C(=O)O[C@H](/C(C)=C/[C@@H]3CC[C@@H](O)[C@H](OC)C3)[C@H](C)[C@@H](O)CC1=O)[C@H](C)C[C@@H]2OC [Tacrolimus] (1000 nM) | 96.6 | 95.4 | 111 | 103 | 115 | 108 | – | – | – | – | – | – | – | – | – | – | – | – | – | – | – | – |
| C=CCNC1=C2C[C@@H](C)C[C@H](OC)[C@H](O)[C@@H](C)/C=C(\C)[C@H](OC(N)=O)[C@@H](OC)/C=C\C=C(/C)C(=O)NC(=CC1=O)C2=O [Tanespimycin] (1000 nM) | 24.2 | 24.7 | 22.9 | 20.8 | 0.99 | 7.14 | – | – | – | – | – | – | – | – | – | – | – | – | – | – | – | – |
| CO[C@H]1C[C@@H]2CC[C@@H](C)[C@@](O)(O2)C(=O)C(=O)N2CCCC[C@H]2C(=O)O[C@H]([C@H](C)C[C@@H]2CC[C@@H](OC(=O)C(C)(CO)CO)[C@H](OC)C2)CC(=O)[C@H](C)/C=C(\C)[C@@H](O)[C@@H](OC)C(=O)[C@H](C)C[C@H](C)/C=C/C=C/C=C/1C [Temsirolimus] (100 nM) | 37.9 | 53.2 | 71.8 | 37 | 50.6 | 24.9 | – | – | – | – | – | – | – | – | – | – | – | – | – | – | – | – |
| C[C@]1(c2nc3c(C(N)=O)cccc3[nH]2)CCCN1 [Veliparib] | – | – | – | – | – | – | 0 | 0 | 0 | 0 | 0 | 0 | 0 | 0 | 0 | 0 | 0 | 0 | 0 | 0 | 0 | – |
| C[C@]1(c2nc3c(C(N)=O)cccc3[nH]2)CCCN1 [Veliparib] (1000 nM) | 107 | 73.3 | 97.1 | 106 | 82.1 | 84.4 | – | – | – | – | – | – | – | – | – | – | – | – | – | – | – | – |
| CC[C@]1(O)C[C@@H]2CN(CCc3c([nH]c4ccccc34)[C@@](C(=O)OC)(c3cc4c(cc3OC)N(C)[C@H]3[C@@](O)(C(=O)OC)[C@H](OC(C)=O)[C@]5(CC)C=CCN6CC[C@]43[C@@H]65)C2)C1 [Vinblastine] (100 nM) | 23.3 | 30.2 | 37.6 | 20.1 | 34.8 | 23.8 | – | – | – | – | – | – | – | – | – | – | – | – | – | – | – | – |
| CS(=O)(=O)c1ccc(C(=O)Nc2ccc(Cl)c(-c3ccccn3)c2)c(Cl)c1 [Vismodegib] (1000 nM) | 99.1 | 97.1 | 92.4 | 98.3 | 114 | 98.3 | – | – | – | – | – | – | – | – | – | – | – | – | – | – | – | – |
